# Literature values in patent US6794347B2, “Process of making gel detergent compositions” (Unilever Home & Personal Care USA a division of Conopco, …, priority 2002, dated 2004).
# Read-outs that look alike come from different tables or passages of the source.
smiles,measurement,setting,value
CCCCCCCCCCCCCCCC(=O)O [Fatty acid chain length 16],Measured pKa value,"Cited from Langmuir, Vol 16, pp 172-177, 2000",8.6˜8.8
same,Measured pKa value,"Cited from Proc. R. Soc. London, A133, 140, 1931",8.5
